Results taken from patent publication US9446065B2, “Pharmaceutical composition for use in the treatment and/or the prevention of osteoarticular diseases” (BONE THERAPEUTICS, priority 2008, dated 2016).
“And” between values parts separate entries of the source, which are not always exact repeats. Identical values can stand only once. Like-named read-outs stand apart in the source and are kept apart here.

Assays:
[1] = tested on: PBMC (Peripheral blood mononuclear cells); test: PBMC proliferation assay (3H-thymidine); assay type: cell-based, human; conditions: for Proliferation: HA 200 μg/mL, A2A 5 μM
Protocol: (§1) The effects of the combination clonidine and hyaluronic acid were tested in a model of Peripheral Blood Mononuclear Cells. In brief, PBMCs (Peripheral blood mononuclear cells) from heparinized venous blood of healthy volunteers were isolated by Ficoll-gradient centrifugation. MNC (Mononuclear cells) were washed three times in PBS and resuspended in RPMI-1640 medium supplemented with 100 U/mL penicillin, 100 μg/mL streptomycin, and 10% heat-inactivated FBS. Cells were seeded at 100.000 cells in 96-wel plate in a total volume of 200 μL/well.
(§2) PBMC, at 100.000 cells/200 μL, were plated in 96-well microtiter plates and stimulated or not 10 μg/mL phytohemagglutinin (PHA). Effects of hyaluronic acid “HA” (200 μg/mL) and p-aminoclonidine “A2A” (5 μM) were tested on PBMC.
Proliferation Assay. The culture was incubated with 1 μCi/mL 3H-thymidine for 24 h before end of culture to measure the proliferation. Then, cells were washed twice with ice-cold PBS and twice with ice-cold 5% trichloroacetic acid (TCA). Finally, cells were lysed with 0.1N NaOH-0.1% Triton-X100. Supernatants were collected and analyzed on a beta-counter in presence of scintillation liquid. Results were done in cpm (“count per minute”=disintegration number of radioactive element observed in series of successive counts of one minute).
(§3) The release of IL-1beta by PBMC and the proliferation of PBMC, induced by PHA stimulation, were set as controls, and compared with the measures for PBMC treated with HA and/or A2A.

[2] = tested on: IL-1β; test: IL-1β detection (ELISA) in PBMC culture; assay type: cell-based, human; conditions: for IL-1β detection: HA 200 μg/mL, A2A 5 μM
Protocol: as §1, §2
IL-1β detection (By ELISA). Levels of IL-1β from PBMC or culture supernatants were measured by Quantikine ELISA kit (R&D Systems Inc, Minneapolis, USA). The minimum detectable concentration of IL-1β was estimated at 1.0 pg/mL.
as §3

[3] = tested on: IL-I beta; test: Inhibition of IL-I beta release by LPS-stimulated TH1 cells; assay type: cell-based
Protocol: The inhibition of IL-I beta release by alpha-2-adrenergic agonists, induced by LPS stimulation of TH1 cells, is measured under control conditions (dexamethasone).

[4] = tested on: acute pain; conditions: cited from earlier work
[5] = tested on: mono-arthritis symptoms; set-up: Reduction in Pain: concentration or dose not given beside the values; conditions: cited from earlier work
[6] = PBMC + PHA 10 μg/mL, PBMC + PHA = 100
[7] = PBMC not stimulated, PBMC + PHA = 100
[8] = average data from meta-analyses and/or published studies

Which results are given for `Nc1cc(Cl)c(N=C2NCCN2)c(Cl)c1` [A2A, p-aminoclonidine]?
effect on PBMC proliferation, in words ([1]; PBMC + PHA): not able to inhibit PBMC proliferation; Proliferation ([1]; PBMC + PHA 10 μg/mL): 16212 cpm; Proliferation [1, 6]: 101%; Proliferation ([1]; PBMC not stimulated): 786 cpm; Proliferation [1, 7]: 4.9%; effect on IL-1beta secretion, in words ([2]; PBMC + PHA): totally suppresses the increase in IL-1beta secretion; effect on basal conditions, in words ([2]; unstimulated PBMC): no effect

Which “effect on IL-I beta release, in words” value [3] does the source give for `Brc1c(NC2=NCCN2)ccc2nccnc12` [Brimonidine] here?
Its value is “no effects”.

For `C[C@@H]1C[C@H]2[C@@H]3CCC4=CC(=O)C=C[C@]4(C)[C@@]3(F)[C@@H](O)C[C@]2(C)[C@@]1(O)C(=O)CO` [Dexamethasone], which inhibition at 0.1 µM ([3]; 10^−7 M, read-out: inhibition of IL-I beta secretion) is on record?
Its inhibition at 0.1 µM is ~65%.

With `N=C(N)N/N=C/c1c(Cl)cccc1Cl` [Guanabenz] as the compound, how does the “effect on IL-I beta release, in words” value [3] read?
Its value is “no effects”.

Which “minimum effect duration in acute pain studies” value ([4]; Alagol et al, 2005) does the source give for `Clc1cccc(Cl)c1NC1=NCCN1` [clonidine, N-(2,6-dichlorophenyl)-4,5-dihydro-1H-imidazol-2-amine] here?
The value was 4 h.

And the “duration of effects in acute pain studies (not to exceed)” value ([4]; Gentili et al, 2001)?
The value was ≤ 72 h.

For hyaluronic acid [HA], which “reduction of PBMC proliferation” value ([1]; PBMC + PHA) is on record?
The value was 2 factor.

And the Proliferation ([1]; PBMC + PHA 10 μg/mL)?
Its Proliferation is 9087 cpm.

And the Proliferation [1, 6]?
Its Proliferation is 57% and 56%.

And the Proliferation ([1]; PBMC not stimulated)?
The Proliferation was 364 cpm.

What about the Proliferation [1, 7] of the same compound?
Its Proliferation is 2.2%.

And the “Improvement in Function” value ([5]; Arich et al., 2005)?
The value was −11%.

And the “Reduction in Pain” value ([5]; Arich et al., 2005)?
Its value is 0%.

What about the “Reduction in Pain (max effect reported)” value ([5]; Arich et al., 2005) of the same compound?
The value was −17%.

And the “Improvement in Function” value ([5]; Kolarz et al., 2003)?
The value was −23%.

What about the “Reduction in Pain” value ([5]; Kolarz et al., 2003) of the same compound?
Its value is −55%.

And the “improvement in function, maximal effect reported in literature” value ([5]; Kolarz et al., 2003)?
Its value is 23%.

And the “improvement in pain, maximal effect reported in literature” value ([5]; Kolarz et al., 2003)?
Its value is 55%.

What about the “Reduction in Pain” value ([5]; Lo et al., 2004) of the same compound?
The value was −7%.

And the “Reduction in Pain (max effect reported)” value ([5]; Lo et al., 2004)?
Its value is −47%.

And the “Reduction in Pain” value ([5]; Wang et al., 2004)?
The value was −8%.

What about the “Reduction in Pain (max effect reported)” value ([5]; Wang et al., 2004) of the same compound?
Its value is −24%.

And the “Improvement in Function” value [5, 8]?
The value was −15%.

What about the “Reduction in Pain” value [5, 8] of the same compound?
The value was −10%.

And the “Side-Effects (major side effects only)” value [5, 8]?
The value was “None”.

What about the benefit on swelling ([5]; literature) of the same compound?
The benefit on swelling was “no reported benefit on swelling”.

And the “decrease of pain score (VAS) in meta-analyses” value ([5]; meta-analyses that reassessed efficacy)?
The value was ≤ 15 mm.

What about the “increase of IL-1beta secretion over the stimulated conditions” value ([2]; PBMC + PHA) of the same compound?
Its value is 3 times.

What about the IL-1β detection ([2]; PBMC + PHA 10 μg/mL) of the same compound?
Its IL-1β detection is 6394 pg/mL.

And the IL-1β detection [2, 6]?
The IL-1β detection was 293% and 292%.

What about the IL-1β detection ([2]; PBMC not stimulated) of the same compound?
The IL-1β detection was 2095 pg/mL.

And the IL-1β detection [2, 7]?
Its IL-1β detection is 96%.
